The results in this text go back to patent US20120029078A1, “COMPOSITIONS COMPRISING MYRISTIC ACID AND USES THEREOF” (IMAGENETIX, INC., priority 2010, published 2012).

One assay relates to IFN-γ. Kind of assay: CD3/CD28-activated cytokine release from human primary T-lymphocytes: IFN-γ. The note with it: FIG. 7. The class given is cell-based. The procedure:
Cytokine release from T-lymphocytes was measured and assessed in order to determine the anti-inflammatory effects of cetylated fatty acids such as 1-TDC and uncetylated fatty acids such as myristic acid. More specifically, the following compounds were tested: 1-TDC, 2-TDC, cetyl myristate (CM), myristic acid (MA), palmityl myristate (PM), palmityl oleate (PO), and palmityl myristoleate (PMO). For this experiment, peripheral blood mononuclear cells were isolated from healthy donors (n=8) with no known medication use by Ficoll-Hypaque density gradient centrifugation. Primary T-lymphocytes were separated from other mononuclear cells (e.g., monocytes) by negative selection using magnetic cell sorting (Dynal, Invitrogen) and pure cell cultures were treated with various doses of tested compounds for 30 minutes. The tested doses were 10^−5-10^−9M. Vehicle, which was used to dissolve the compounds into an aqueous preparation, was used as the negative control while dexamethasone (1 nM) was used as the positive control. After the incubation with test compounds, half the samples were treated with DynaBeads (Dynal, Invitrogen) coated with CD3 and CD28 antibodies as the activator of cell cytokine release. Cells were incubated over various time points at 37° C. under 5% CO2. Supernatants were collected at 24 and 48 hours and were stored at −80° C. until analyzed. Each sample was prepared in triplicates. The cytokine release was analyzed by xMAP multiplexing technology using Luminex 100 platform. This method allowed simultaneous analyses of all the cytokines proposed in this experiment. The following T-lymphocyte associated cytokines: IFN-γ, IL-2, IL-10, IL-5, and IL-4 were assessed. […] A paradigm shift between the cytokines by Th1 and Th2 indicates a more or less inflammatory process depending on which of these cytokines are increased. While the validity of this shift is questioned in different diseases and/or infections, the central role of T cells in the progression of inflammation is still evaluated on the cytokine release by these subsets of lymphocytes. Data was gathered throughout 24- and 48-hour time points for T-lymphocyte mediated release. Each experiment was repeated at least 3 times and data was presented as %-inhibition over the vehicle's effect of LPS-mediated cell activation.

The subject of the next assay is IL-1β. In words: LPS-activated cytokine release from human primary monocytes (xMAP Luminex): IL-1β. The note with it: 24 hours. The class given is cell-based. The procedure: (§1) Cytokine release from monocytes was measured and assessed in order to determine the anti-inflammatory effects of cetylated fatty acids such as 1-TDC and non-cetylated fatty acids such as myristic acid. Human primary monocytes were provided by healthy subjects (n=7) who were not taking medication, had no medical condition, and no periodontal or gingival inflammation. None of the subjects were smokers and all subjects were of Caucasian origin with an age range of 24-51 years old. All patient samples were obtained after the approval of the Institutional Review Board at Boston University Medical Center.
(§2) Fresh peripheral venous blood ([…]) was obtained by venipuncture into heparinized (10 U/mL) glass tubes. Monocytes were isolated using Ficoll-Hypaque density gradient centrifugation and separated from the other mononuclear cells (e.g., lymphocytes) by adherence for over 2 hours. Pure cell cultures were treated with various doses (10^−5-10^−9 M) of various types of fatty acids such as 1-TDC and myristic acid for 30 minutes. Vehicle (5% ethyl alcohol), which was used to dissolve the compound into an aqueous preparation, was used as the negative control while dexamethasone (1 nM) was used as the positive control. After incubation with the test compound, half of the samples were treated with LPS from E. coli (100 ng/mL) as the activator of cell cytokine release over various time points (24 hours) at 37° C. under 5% CO2. Supernatants were collected and stored at −80° C. until analyzed. Each sample was prepared in triplicate. Cytokine release (IL-1β, TNF-α, IL-6, IL-12, IL-8, and MCP-1) was analyzed by xMAP multiplexing technology using Luminex 100 Platform. Data was presented as % inhibition over the vehicle's effect of LPS-mediated cell activation. Dexamethasone inhibition was taken as 100% inhibition.
(§3) Cytokine release data were gathered at 6, 24, and 48 hour time points for monocyte/macrophages (FIGS. 3-5). Each experiment was repeated at least 3 times and data was presented as percentage of inhibition over the vehicle's effect of LPS-mediated cell activation.

Another assay deals with TNF-α. In words: LPS-activated cytokine release from human primary monocytes (xMAP Luminex): TNF-α. It counts as cell-based. On the procedure: as §1, §2, §3
The test system of a further assay is IL-12. In words: LPS-activated cytokine release from human primary monocytes (xMAP Luminex): IL-12. The class given is cell-based. The note with it: 24 hours. The procedure:
as §1
(§4) Fresh peripheral venous blood ([…]) was obtained by venipuncture into heparinized (10 U/mL) glass tubes. Monocytes were isolated using Ficoll-Hypaque density gradient centrifugation and separated from the other mononuclear cells (e.g., lymphocytes) by adherence for over 2 hours. Pure cell cultures were treated with various doses (10^−5-10^−9 M) of various types of fatty acids such as 1-TDC and myristic acid for 30 minutes. […] Supernatants were collected and stored at −80° C. until analyzed. […] Cytokine release (IL-1β, TNF-α, IL-6, IL-12, IL-8, and MCP-1) was analyzed by xMAP multiplexing technology using Luminex 100 Platform. […]

The subject of a further assay is P. gingivalis A7436. In words: Antibacterial activity: viability of P. gingivalis by Live/Dead BacLight staining and flow cytometry. The class given is cell-based, Porphyromonas gingivalis. The note with it: for antibacterial capacity (percentage of dead bacteria) compared with chlorhexidine: FIG. 1, positive control chlorhexidine (CHX) 0.04%.
The test system of the next assay is IL-8. In words: LPS-activated cytokine release from human primary monocytes (xMAP Luminex): IL-8. It counts as cell-based. The note with it: 24 hours. On the procedure:
as §1, §4

The subject of a further assay is IL-2. In words: CD3/CD28-activated cytokine release from human primary T-lymphocytes: IL-2. The class given is cell-based. The note with it: 24 hour period; FIG. 8. The procedure: (§5) Cytokine release from T-lymphocytes was measured and assessed in order to determine the anti-inflammatory effects of cetylated fatty acids such as 1-TDC and uncetylated fatty acids such as myristic acid. More specifically, the following compounds were tested: 1-TDC, 2-TDC, cetyl myristate (CM), myristic acid (MA), palmityl myristate (PM), palmityl oleate (PO), and palmityl myristoleate (PMO). For this experiment, peripheral blood mononuclear cells were isolated from healthy donors (n=8) with no known medication use by Ficoll-Hypaque density gradient centrifugation. Primary T-lymphocytes were separated from other mononuclear cells (e.g., monocytes) by negative selection using magnetic cell sorting (Dynal, Invitrogen) and pure cell cultures were treated with various doses of tested compounds for 30 minutes. The tested doses were 10^−5-10^−9M. […] Supernatants were collected at 24 and 48 hours and were stored at −80° C. until analyzed. […] The cytokine release was analyzed by xMAP multiplexing technology using Luminex 100 platform. […] The following T-lymphocyte associated cytokines: IFN-γ, IL-2, IL-10, IL-5, and IL-4 were assessed. […] While the validity of this shift is questioned in different diseases and/or infections, the central role of T cells in the progression of inflammation is still evaluated on the cytokine release by these subsets of lymphocytes. […]

Another assay has as its system IL-6. In words: LPS-activated cytokine release from human primary monocytes (xMAP Luminex): IL-6. The note with it: 24 hours. The class given is cell-based. On the procedure:
as §1, §4

Assay [1] deals with periodontal disease established by P. gingivalis. In words: Rabbit periodontal disease established by P. gingivalis, topical treatment. The class given is in vivo, New-Zealand White rabbits. The source says: Fifteen New-Zealand White rabbits are distributed into 3 groups: (1)
No treatment (5 animals), (2) Placebo treatment (5 animals), and (3) myristic acid treatment (5 animals). In all animals, periodontal disease is established by P. gingivalis application every-other-day over a 6-week period. At 6 weeks, P. gingivalis application is terminated and topical use of the myristic acid and placebo agents is initiated for a second 6 weeks at which time animals are sacrificed. Morphometric, radiographic, and histologic evaluations are performed. Histologic sections are stained with hematoxylin-eosin, and tartrate-resistant acid phosphatase (TRAP) for descriptive histology and osteoclast activity. In addition, osteocalcin staining is used to detect osteoblast activity.

In a further assay the test system is MCP-1. Kind of assay: LPS-activated cytokine release from human primary monocytes (xMAP Luminex): MCP-1. It counts as cell-based. The procedure: as §1, §2, §3
In another assay the test system is IL-5. Kind of assay: CD3/CD28-activated cytokine release from human primary T-lymphocytes: IL-5. It counts as cell-based. The note with it: 24 and 48 hours; FIG. 11. On the procedure:
as §5

The test system of the next assay is IL-4. In words: CD3/CD28-activated cytokine release from human primary T-lymphocytes: IL-4. It counts as cell-based. The note with it: 24 and 48 hours; FIG. 10. The procedure:
as §5

The next assay has as its system IL-10. In words: CD3/CD28-activated cytokine release from human primary T-lymphocytes: IL-10. The note with it: 24 and 48 hours; FIG. 9. It counts as cell-based. The procedure:
as §5

Description for P. gingivalis A7436: P. gingivalis A7436 was cultured on laced blood paromomycin agar plates and then transferred to Schaedler's broth. All cultures were grown at 37° C. under anaerobic conditions. In order to dissolve the 1-TDC and MA in an aqueous medium that can be utilized in carrying out the experiments, the following ingredients were used: ethanol (EtOH) and Methyl-β-cyclodextrin (Sigma-Aldrich, St. Louis, Mo.). More specifically, 750.0 mg of Methyl-β-cyclodextrin was dissolved in 5.0 mL of nano-pure water to get a concentration 150.0 mg/mL (MBC). The MBC solution was stored in the refrigerator at a temperature of 4° C. and was returned to room temperature before use. MA was prepared by dissolving 90.0 mg in 3.0 mL of ETOH, 2.4 mL of MBC, and 24.6 mL of SB in a sterile tube. The entire mixture was placed in a hot bath at 30° C. for 30 minutes. The final concentration of MA was 3.0 mg/mL.
2×10^7 cells were transferred to 5 mL culture tubes and treated with either 1-TDC or MA (1.0 mg/ml, 0.7 mg/mL, 0.5 mg/mL, 0.3 mg/mL, 0.1 mg/mL) or corresponding vehicle concentrations. A negative control was treated with additional Schaedler's broth. Tubes were incubated in anaerobic jars at 37° C. for several time points between 4-72 hours.
After incubation, viability of the P. gingivalis cells was assessed. 1 mL of each sample was removed and spun down. Bacteria were resuspended in 1 mL of 0.85% NaCl solution. To generate a standard curve, half of the bacteria that was not treated with vehicle or compound were heat-killed for one hour and then mixed with live cells in known proportions (0%, 25%, 50%, 75% and 100% alive). The 100% live cells were used as the negative control. To assess the viability, a fluorescent based kit was used. Live/Dead BacLight Bacterial Viability Kit (Invitrogen L7012) allows for differentiation between alive and dead bacteria at a highly accurate and sensitive way. […]
Samples were then run on the flow cytometer (FACScan). […] From these established regions, percent viability of the experimental samples were determined.

As to `CCCC/C=C\CCCCCCCC(=O)OCCCCCCCCCCCCCCCC` [Palmityl Myristoleate, palmityl myristoleate], the “effect on IFN-γ production by T-lymphocytes” value in the assay with IFN-γ (24 hour mark) and in the assay with IFN-γ (48 hour mark) was “inhibit” throughout. Moreover, the “monocyte-mediated IL-1β release, inhibition” value in the assay with IL-1β was “significantly and fully inhibited”. Moreover, the “monocyte-mediated TNF-α release, inhibition (text)” value with TNF-α (24 hours) was “significantly and fully inhibited”.
As to `CCCCCCCCCCCCCC(=O)O` [Myristic Acid, Myristic acid], the “monocyte-mediated IL-12 release, inhibition” value with IL-12 was “significantly and dose dependently inhibited”. Also, the “antibacterial capacity (percentage of dead bacteria) compared with chlorhexidine” value in the assay on P. gingivalis A7436 was “comparable level of antibacterial capacity as seen with chlorhexidine”. Moreover, the “dose dependence of antibacterial activity against P. gingivalis” value in the assay on P. gingivalis A7436 (FIG. 2, increases dramatically at 0.1 mg/ml and higher doses (e.g., 1 mg/ml)) was “dose-dependent”. Also, the “activation of IFN-γ release by T-lymphocytes” value in the assay on IFN-γ (over 24 and 48 hours) was “capacity to activate IFN-γ release by T cells and this effect increased over time”. Besides, in the assay on IL-8, the “monocyte-mediated IL-8 release, inhibition” value is “significantly and dose dependently inhibited”. Moreover, the “effect on T-lymphocyte IL-2 production” value with IL-2 is “activated”. Further, the “monocyte-mediated IL-6 release, inhibition” value in the assay with IL-6 was “significantly and dose dependently inhibited”. Moreover, in assay [1] (6 weeks), the “histomorphometric tissue and bone level vs placebo and no treatment” value was “significant changes in tissue and bone level”; the “inflammatory changes in hematoxylin-eosin stained sections” value is recorded as “complete reversal of inflammatory changes”; the “reformation of soft and bone tissues lost to periodontal inflammation” value is “reform soft and bone tissues”. In addition, the “progression of gingival inflammation and bone destruction induced by P. gingivalis” value in assay [1] (6 weeks after 6 weeks of disease induction) is reported as “stops the progression”. Moreover, in assay [1] (6 weeks, TRAP staining), the osteoclastic activity entry is “significantly suppresses”. Also, in assay [1] (6 weeks, osteocalcin staining), the osteoblastic activity entry is “increased osteoblastic activity”. Also, the “monocyte-mediated IL-1β release, inhibition” value with IL-1β was “significantly and dose dependently inhibited”. Also, the “monocyte-mediated TNF-α release, inhibition (text)” value in the assay with TNF-α (24 hours) is given as “all cytokines except TNF-α”. In addition, in the assay with MCP-1 (24 hours), the “monocyte-mediated MCP-1 release, inhibition” value was “significantly and dose dependently inhibited”.
As to `CCCCCCCC/C=C\CCCCCCCC(=O)OCCCCCCCCCCCCCCCC` [Palmityl Oleate, palmityl oleate], the “effect on IFN-γ production by T-lymphocytes” value in the assay on IFN-γ (24 hour mark) is listed as “inhibit”. Further, the “monocyte-mediated IL-1β release, inhibition” value in the assay on IL-1β was “significantly and fully inhibited”. For the same compound, the “monocyte-mediated TNF-α release, inhibition (text)” value in the assay with TNF-α (24 hours) is “significantly and fully inhibited”.
Consider `CCCCCCCCCCCCCC(=O)[O-].[Na+]` [sodium myristate], for which, in the assay with P. gingivalis A7436, the “antibacterial capacity (percentage of dead bacteria) compared with chlorhexidine” value is reported as “comparable level of antibacterial capacity as seen with chlorhexidine”.
Consider `CCCCCCCCCCCCCCCCOC(=O)CCCCCCCCCCCCC` [Cetyl Myristate, cetyl myristate], for which, in the assay on IFN-γ (10^−5-10^−9M), the “dose dependence of activation of T-cell IFN-γ release” value is listed as “dose-dependent activation”. Also, the “monocyte-mediated IL-8 release, inhibition” value with IL-8 is given as “inhibited”. For the same compound, the “IL-5 release by human T cells (activation)” value in the assay with IL-5 was “most potent activator”. In addition, in the assay with IL-4, the “IL-4 generation by human T cells (activation)” value is given as “most potent compound tested”. Further, the “T-lymphocyte release of IL-10 (activation)” value in the assay with IL-10 is “most potent activator”. The “monocyte-mediated TNF-α release, inhibition (text)” value in the assay with TNF-α (6 hours) is “inhibits”; in the assay on TNF-α (24 hours, listed as Cetyl myristate), “inhibition on TNF-α continued”. Further, the “monocyte-mediated MCP-1 release, inhibition” value in the assay with MCP-1 (6 hours) and in the assay with MCP-1 (24 hours) was “inhibited” throughout.
Regarding `CCCCCCCCCCCCCCCCOC(=O)CCCCCCCCCCCCC` [Palmityl Myristate, palmityl myristate], the “monocyte-mediated TNF-α release, inhibition (text)” value in the assay on TNF-α (24 hours, listed as palmityl myristate) is reported as “blocked TNF-α release, however the inhibition was weaker compared to cetyl myristate”.
